Measured values: paper PMC12865225 (Clinical and Translational Science, 2026)

Columns and labels:
OAT1 [1] = tested on: T1, OAT1; assay: OAT1 inhibition, fluorescein uptake into HEK293 cells; assay type: cell-based; details: human, HEK293 cells transiently expressing OAT1, pH 7.4, probe fluorescein 5 µM; 200 μM inhibitor, 5 μM fluorescein; read-out: inhibition of fluorescein transport into OAT1-expressing cells
T1 construct: expressed in transfected cells; host or cells: HEK293 (recombinant baculovirus-mediated transduction)
Experimental: The human transporters OATP1B1, OATP1B3, OATP2B1, and OAT1‐OAT4 and a negative control protein (enhanced yellow fluorescent protein, eYFP) were transiently expressed in human embryonic kidney 293 (HEK293) cells by recombinant baculovirus‐mediated transduction. Baculoviruses carrying human genes for the transporters were prepared as reported previously. HEK293 cells were cultured in DMEM containing 10% fetal bovine serum at 37°C and 5% CO2 and passaged two to three times per week. For the transport studies, 0.05 × 10^6 cells for 48‐well plates (OATPs) or 0.06 × 10^6 cells for 24‐well plates (OATs) were seeded onto cell‐culture treated well plates coated with poly‐D‐lysine. […]
In the OATP inhibition assays, inhibitors in warm TP‐buffer were directly applied to cells after media removal, followed by a 30‐min preincubation step in the presence of inhibitors. […] OAT1 and OAT3 cells were lysed with 200 μL of 1 M sodium hydroxide for 10 min, and 150 μL of these samples were transferred to a black well plate for fluorescein quantification. […]
For the inhibition data analysis, the average of measured concentrations in the control cells was subtracted from the average of measured concentrations in transporter‐expressing cells for each inhibitor concentration and then normalized to the vehicle sample that represents 100% transport activity. […]

OATP1B1 = molecular target: T2, OATP1B1 (Homo sapiens, UniProt Q9Y6L6); assay: Uptake transport assay in OATP1B1-expressing HEK293 cells; assay type: cell-based; details: for transport by OATP1B1: 2 and 50 μM, 10 min
T2 construct: expressed in transfected cells; host or cells: HEK293 (recombinant baculovirus-mediated transduction)
T2 sequence (Q9Y6L6 1-691): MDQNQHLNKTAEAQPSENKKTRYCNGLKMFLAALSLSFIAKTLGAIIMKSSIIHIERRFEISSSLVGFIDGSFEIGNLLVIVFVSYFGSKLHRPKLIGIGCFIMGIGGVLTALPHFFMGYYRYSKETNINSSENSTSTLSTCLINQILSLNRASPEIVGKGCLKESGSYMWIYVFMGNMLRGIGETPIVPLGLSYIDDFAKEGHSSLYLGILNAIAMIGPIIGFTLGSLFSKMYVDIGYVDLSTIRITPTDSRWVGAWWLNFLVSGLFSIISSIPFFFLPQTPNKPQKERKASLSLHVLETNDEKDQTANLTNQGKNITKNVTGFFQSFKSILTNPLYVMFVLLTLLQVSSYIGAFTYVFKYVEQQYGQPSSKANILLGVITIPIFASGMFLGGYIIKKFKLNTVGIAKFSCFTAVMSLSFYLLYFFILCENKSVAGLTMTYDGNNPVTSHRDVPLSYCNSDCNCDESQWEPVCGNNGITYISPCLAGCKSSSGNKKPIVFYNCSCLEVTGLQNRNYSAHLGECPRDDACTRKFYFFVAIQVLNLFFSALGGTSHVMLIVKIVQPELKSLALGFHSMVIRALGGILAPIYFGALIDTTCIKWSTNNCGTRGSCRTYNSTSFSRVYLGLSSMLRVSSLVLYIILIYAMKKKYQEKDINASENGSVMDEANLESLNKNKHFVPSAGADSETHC
Experimental: (§1) The human transporters OATP1B1, OATP1B3, OATP2B1, and OAT1‐OAT4 and a negative control protein (enhanced yellow fluorescent protein, eYFP) were transiently expressed in human embryonic kidney 293 (HEK293) cells by recombinant baculovirus‐mediated transduction. Baculoviruses carrying human genes for the transporters were prepared as reported previously. HEK293 cells were cultured in DMEM containing 10% fetal bovine serum at 37°C and 5% CO2 and passaged two to three times per week. For the transport studies, 0.05 × 10^6 cells for 48‐well plates (OATPs) or 0.06 × 10^6 cells for 24‐well plates (OATs) were seeded onto cell‐culture treated well plates coated with poly‐D‐lysine. After 1 day, cells were transduced to produce recombinant proteins by changing media to DMEM containing 30 μL (48‐well plates) or 60 μL (24‐well plates) of recombinant baculovirus and 3 mM (OATs) or 5 mM (OATPs) sodium butyrate in a total media volume of 500 μL. The cells were cultured for a further 2 days before the transport assays.
For the transport studies, media were removed and cells were washed once with warm transport uptake buffer (TP‐buffer—pH 7.4 HBSS with 25 mM HEPES and 4 mM sodium bicarbonate). Each experiment included triplicate (OATP) or duplicate (OAT) samples for every test condition. The uptake was started by removing liquid from wells and applying warm TP‐buffer (200 μL for 24‐well plates or 125 μL for 48‐well plates) containing a test compound to cells. Transport assays were terminated after a pre‐specified incubation time (reported in figure legends) by removing substrate solution and washing cells three times with cold TP‐buffer (300 μL for 48‐well plates and 400 μL for 24‐well plates). For the liquid chromatography mass spectrometry (LC–MS) analysis, compounds were extracted from cells with 125 μL (48‐well plates) or 250 μL (24‐well plates) of an ultrapure‐water solution containing 75% methanol and 0.1% formic acid, shaking at 250 RPM for 30 min. […] Samples were transferred to well plates, centrifuged at 3000 g for 30 min, and transferred to a new well plate for the analysis.
Equation (2) (the Michaelis–Menten equation) was fit to the transport kinetic assay data. […] (2) Uptake=Vmax×S/Km+S

OAT1 [2] = tested on: T1, OAT1; assay: Uptake transport assay in OAT1-expressing HEK293 cells; assay type: cell-based, human; details: 2 and 50 μM, 10 min
Experimental: as §1
For the transport studies, media were removed and cells were washed once with warm transport uptake buffer (TP‐buffer—pH 7.4 HBSS with 25 mM HEPES and 4 mM sodium bicarbonate). Each experiment included triplicate (OATP) or duplicate (OAT) samples for every test condition. […]

In the case of `Cc1onc(-c2c(Cl)cccc2Cl)c1C(=O)N[C@@H]1C(=O)N2[C@@H]1SC(C)(C)[C@@H]2C(=O)O` [Dicloxacillin], the inhibition at 5 min, 200 μM (OAT1 [1]) is reported as less than 50%, the “transport by OATP1B1” value (OATP1B1) is reported as “transported” and the “Vmax (pmol/106 cells/min) OATP1B1” value (OATP1B1; uptake, 2 min) is reported as 15.9 pmol/106 cells/min. For the same compound, the “transport by OAT1” value (OAT1 [2]) was “transported”.
For `Cc1onc(-c2c(F)cccc2Cl)c1C(=O)N[C@@H]1C(=O)N2[C@@H]1SC(C)(C)[C@@H]2C(=O)O` [Flucloxacillin], the inhibition at 5 min, 200 μM (OAT1 [1]) was less than 50%, the “transport by OATP1B1” value (OATP1B1) was “transported” and the Km (OATP1B1; uptake, 2 min) was 10 to 18 µM. For the same compound, the “Vmax (pmol/106 cells/min) OATP1B1” value (OATP1B1; uptake, 2 min) was 23.5 pmol/106 cells/min and the “transport by OAT1” value (OAT1 [2]) was “transported”.
